In patent US10709709B2, “Substituted carbonucleoside derivatives useful as anticancer agents” (Pfizer Inc., priority 2016, dated 2020) one finds IC50 data, which are given here for nine compounds.

Test [1] has as its target PRMT5/MEP50 protein complex (Homo sapiens (Human), UniProt O14744). The experiment in a line: PRMT5 biochemical assay (3H-SAM methylation of H4(1-21) peptide, filter plate scintillation). The following applies: 10 nM PRMT5/MEP50 complex, 200 nM H4(1-21) peptide, 1 uM SAM, 25 minute incubation at room temperature. The gist of the method: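 Scintillation read-out: after 25 min at room temperature and a TCA stop, tritiated H4(1-21) product (peptide 200 nM) is caught on a filter plate. Reaction holds 10 nM PRMT5/MEP50 and 1 uM 3H-labelled plus cold SAM in 50 mM Tris pH 8.5 with MgCl2, EDTA and TCEP. IC50 values come from a 4-parameter dose-response fit.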

In test [2] the test system is A549 lung adenocarcinoma cells. The test is described as follows: A549 proliferation assay (Cell Titer Glo). Type of test: cell-based. To be noted: Homo sapiens, A549, 168 h, 7 days with compound, cell viability by Cell Titer Glo (ATP). The essentials:
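A549 cells plated overnight, then treated with nine-point 3.3-fold dilutions (final top 10 μM, 0.2% DMSO) for 7 days at 37 °C, with media and compound refreshed on day 4. Viability measured as ATP by Cell Titer Glo luminescence; IC50 from 4-parameter fit normalized to DMSO control.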

PRMT5/MEP50 protein complex, sequence (O14744 other isoform, or with tags, fused parts or gaps): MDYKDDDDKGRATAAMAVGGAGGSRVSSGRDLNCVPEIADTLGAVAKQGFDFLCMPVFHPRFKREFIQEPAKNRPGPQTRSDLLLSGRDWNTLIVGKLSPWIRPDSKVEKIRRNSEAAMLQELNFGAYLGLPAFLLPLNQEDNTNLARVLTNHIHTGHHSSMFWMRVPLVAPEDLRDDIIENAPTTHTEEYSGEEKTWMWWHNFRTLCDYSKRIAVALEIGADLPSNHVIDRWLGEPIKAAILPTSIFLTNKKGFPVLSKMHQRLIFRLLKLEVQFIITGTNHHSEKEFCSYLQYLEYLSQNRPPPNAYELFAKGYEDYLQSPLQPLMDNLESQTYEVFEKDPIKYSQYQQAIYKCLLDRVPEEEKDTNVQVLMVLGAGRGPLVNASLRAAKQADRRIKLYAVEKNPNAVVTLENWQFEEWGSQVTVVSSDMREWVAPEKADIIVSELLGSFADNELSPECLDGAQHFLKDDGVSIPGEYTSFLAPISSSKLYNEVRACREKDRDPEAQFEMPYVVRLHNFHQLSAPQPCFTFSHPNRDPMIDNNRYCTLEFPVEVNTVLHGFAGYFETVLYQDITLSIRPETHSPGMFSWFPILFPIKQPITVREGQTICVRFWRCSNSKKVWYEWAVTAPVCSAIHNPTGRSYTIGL
PRMT5/MEP50 protein complex, sequence (Q9BQA1 whole entry partner): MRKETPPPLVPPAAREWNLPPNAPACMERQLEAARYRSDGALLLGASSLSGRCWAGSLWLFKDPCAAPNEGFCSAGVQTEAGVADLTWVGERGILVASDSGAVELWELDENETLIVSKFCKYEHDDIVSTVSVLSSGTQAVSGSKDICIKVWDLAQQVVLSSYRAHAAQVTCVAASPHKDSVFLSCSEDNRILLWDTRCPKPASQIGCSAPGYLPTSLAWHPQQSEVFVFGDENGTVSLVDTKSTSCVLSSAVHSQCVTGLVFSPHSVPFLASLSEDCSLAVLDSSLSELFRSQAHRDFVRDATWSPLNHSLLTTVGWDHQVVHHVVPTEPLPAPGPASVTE

Take `Nc1ncnc2c1c(F)cn2[C@@H]1C[C@H](Oc2cc(C(F)F)cc3c2CNCC3)[C@@H](O)[C@H]1O` [Example 195, (1S,2S,3R,5S)-3-(4-amino-5-fluoro-7H-pyrrolo[2,3-d]pyrimidin-7-yl)-5-((6-(difluoromethyl)-1,2,3,4-tetrahydroisoquinolin-8-yl)oxy)cyclopentane-1,2-diol]: the IC50 (as a rule, the concentration at which inhibition is half-maximal) came to 1 nM in test [1] and 22 nM in test [2].

Take `Nc1ncnc2c1c(F)cn2[C@@H]1C[C@H](Oc2cc(Br)cc3c2CNCC3)[C@@H](O)[C@H]1O` [Example 101, (1S,2S,3R,5S)-3-(4-amino-5-fluoro-7H-pyrrolo[2,3-d]pyrimidin-7-yl)-5-((6-bromo-1,2,3,4-tetrahydroisoquinolin-8-yl)oxy)cyclopentane-1,2-diol]: the IC50 in test [1] came out at 1 nM; in test [2], 112 nM.

`Cc1ncnc2c1ccn2[C@@H]1C[C@H](Oc2cc(Br)c(F)c3c2CNCC3)[C@@H](O)[C@H]1O` [Example 94, (1S,2S,3S,5R)-3-((6-bromo-5-fluoro-1,2,3,4-tetrahydroisoquinolin-8-yl)oxy)-5-(4-methyl-7H-pyrrolo[2,3-d]pyrimidin-7-yl)cyclopentane-1,2-diol]: the half-maximal inhibitory concentration (IC50) in test [1] turned out to be 1 nM; in test [2] it was 115 nM.

In the case of `Nc1ncnc2c1c(F)cn2[C@@H]1C[C@H](Oc2cc(Cl)cc3c2CNCC3)[C@@H](O)[C@H]1O` [Example 102, (1S,2S,3R,5S)-3-(4-amino-5-fluoro-7H-pyrrolo[2,3-d]pyrimidin-7-yl)-5-((6-chloro-1,2,3,4-tetrahydroisoquinolin-8-yl)oxy)cyclopentane-1,2-diol], the IC50 in test [1] was 1 nM; in test [2], 192 nM.

Regarding `Cc1cc2c(c(O[C@H]3C[C@@H](n4ccc5c(C)ncnc54)[C@H](O)[C@@H]3O)c1)CNCC2` [Example 88, (1S,2S,3R,5S)-3-(4-methyl-7H-pyrrolo[2;3-d]pyrimidin-7-yl)-5-[(6-methyl-1,2,3,4-tetrahydroisoquinolin-8-yl)oxy]cyclopentane-1,2-diol], the IC50 in test [1] worked out at 1 nM; in test [2], 545 nM.

In the case of `Cc1ncnc2c1ccn2[C@@H]1C[C@H]([C@H](O)c2ccc(Cl)cc2CN)[C@@H](O)[C@H]1O` [Example 53, (1S,2R,3R,5R)-3-((S)-(2-(aminomethyl)-4-chlorophenyl)(hydroxy)methyl)-5-(4-methyl-7H-pyrrolo[2,3-d]pyrimidin-7-yl)cyclopentane-1,2-diol], the values for the half-inhibitory concentration (IC50) in test [1] and in test [2] were 6 nM and 227 nM, respectively.

`COc1cc(O[C@H]2C[C@@H](n3ccc4c(C)ncnc43)[C@H](O)[C@@H]2O)c2c(c1F)CCNC2` [Example 198, (1S,2S,3S,5R)-3-((5-fluoro-6-methoxy-1,2,3,4-tetrahydroisoquinolin-8-yl)oxy)-5-(4-methyl-7H-pyrrolo[2,3-d]pyrimidin-7-yl)cyclopentane-1,2-diol]: the figures for the concentration for half-maximal inhibition (IC50) in test [1] and in test [2] were 1 nM and 3820 nM, respectively.

As to `Nc1ncnc2c1c(F)cn2[C@@H]1C[C@H](Oc2cc(C(F)(F)F)cc3c2CNCC3)[C@@H](O)[C@H]1O` [Example 104, (1S,2S,3R,5S)-3-(4-amino-5-fluoro-7H-pyrrolo[2,3-d]pyrimidin-7-yl)-5-((6-(trifluoromethyl)-1,2,3,4-tetrahydroisoquinolin-8-yl)oxy)cyclopentane-1,2-diol], the IC50 worked out at 1 nM in test [1] and 460 nM in test [2].

With `Cc1ncnc2c1ccn2[C@@H]1C[C@H](Oc2cc(C#N)cc3c2CNCC3)[C@@H](O)[C@H]1O` [Example 91, 8-(((1S,2S,3S,4R)-2,3-dihydroxy-4-(4-methyl-7H-pyrrolo[2,3-d]pyrimidin-7-yl)cyclopentyl)oxy)-1,2,3,4-tetrahydroisoquinoline-6-carbonitrile], the IC50 was determined as 1 nM in test [1] and 119 nM in test [2].
